Measurements: US20210358575A1, “A METHOD FOR DETERMINING THE EFFICACY OF TREATMENT WITH A COMBINATION OF DRUGS IN A SUBJECT DIAGNOSED WITH A DISEASE AND A METHOD FOR CLASSIFYING THE UTILITY OF DRUG COMBINATIONS IN TREATMENT OF SAID SUBJECT” (priority 2018, published 2021)

Key:
[1] = tested on: live pathological cells (LPC) in bone marrow samples of AML patients; test: PharmaFlow PM test: ex vivo drug sensitivity of whole bone marrow samples, population pharmacodynamic models; assay type: cell-based, human; details: typical population value
Method: Ex vivo drug sensitivity analysis was made using the PharmaFlow platform (previously termed ExviTech®) maintaining the bone marrow (BM) microenvironment. A minimum BM sample volume between one and two mL was collected by aspiration at AML diagnosis, before starting induction chemotherapy, and was processed by an automated method 24 hours after extraction. Samples were incubated with CYT, IDA and/or CYT+IDA for 48 hours. A more detailed description of the procedure has been published elsewhere (Bennett, et al 2014).
Evaluation of drug response was done by counting the number of live pathological cells (LPC) remaining after incubation at increasing drug concentrations (Upton and Mould 2014). Dying cells (apoptosis) were excluded using Annexin V-FITC. Pharmacological responses were analyzed using PD population-based models (Upton and Mould 2014) which essentially perform the fitting of the dependent variable (natural log of LPC) in a non-linear mixed-effects model to derive typical population values (fixed effects) and the magnitude of inter-patient and residual variability (random effects).
Model development was performed with the first-order conditional estimation method using interaction option with the software NONMEM (v7.2) (Beal, et al 1989-2001), according to the following equation: […]
Where LPC0 (LCTi0) parameter refers to the number of LPC (LCTi) after incubation in the absence of drug, Emax represents the maximum fractional decrease in LPC that the drug can elicit, EC50, is the drug concentration exerting half of Emax, and γ is the parameter governing the steepness of the LPC vs drug concentration (C) curve. For interaction analysis a Surface Interaction model (Greco, et al 1995) was used to estimate the degree of synergy, referred as a parameter, between both drugs. Interpatient variability (IPV) associated to all parameters was described by means of an exponential model of the components of variance. An additive error structure was used for the residual variability. Population PD models were built with bone marrow (BM) samples from 473 patients that were incubated with CYT, 456 with IDA and 443 with CYT+IDA. Bayesian estimation methods were then used to retrieve individual patient parameters based on their available exposure-response measurements in conjunction with the PD population parameters.
Individual response profiles normalized with respect to LPC0 (LCTi0), were integrated between the concentration points corresponding to the 20th and 80th percentiles of the distribution of estimated individual EC50 values, to obtain the values of the areas under the curves (AUCs) that were used as a descriptor of the ex vivo drug effect (i.e. the higher the AUC, the lower the cytotoxic effect (efficacy or potency) of the drug.

[2] = tested on: first-line AML patients treated with CYT+IDA; test: Validation of PM Test score vs clinical response in 112 first-line AML samples; assay type: in vivo, human; details: 112 AML patients treated with CYT+IDA
Source text: The Precision Medicine (PM) Test as described ranks treatments by a score that estimates the activity of each treatment across a population of patient samples. Higher score represents more ex vivo sensitivity to treatment, while lower score represents less ex vivo sensitivity to treatment, i.e. more ex vivo resistance. A particular format of the results of the PM Test is shown in FIG. 19, panels A and B, wherein the ranking of treatments by activity score from 100%=best to 0%=worst is shown (score may be represented graphically using a colour/tone gradient or categorisation). The following 3 categories are identified:
To validate the predictive power of these PM Test score results, the set of 123 samples treated homogeneously with CYT+IDA that were used in the correlation study of Example 1 were employed. Only 112 samples were used for validation. To evaluate the predictive power of the PM Test score, in the format shown in FIG. 19, panel A referring to a sensitive patient we can only use patients predicted to be sensitive or resistant. Treatments having intermediate scores are not considered sufficiently strong to predict any response. In the case of intermediate scores, other factors such as pharmacokinetics may be more important than the score. On the other hand, extreme scores are more likely to prevail over other factors such as pharmacokinetics.
The set of data of 112 patients treated with CYT+IDA represents a 1st line treatment of AML with a 72% response rate. This means that 72% of these 112 patients achieved Complete Remission (CR) clinically. The majority of patients were sensitive, with fewer resistant patients. Thus, the statistics are improved by calculating the % of cases in which the PM Test score predicted patients to be sensitive to the ex vivo treatment. This means selecting only the treatments to which the patient is expected to be very sensitive, with scores between 80-100%. The % of accurate prediction of sensitive (responsive) patients is referred as the Negative Predicted Value (NPV).
Samples whose score are between this variable threshold and 100% are analysed and predicted as sensitive because they have the top score. The results are shown for the monotherapies CYT and IDA, and for the combination treatment. Focus was placed on the combination treatment CYT+IDA that was administered to patients. Columns 8 to 10 of Table 4 show the results for the combined treatment CYT+IDA for different thresholds. The lowest threshold 55%, which means between 55 and 100%, identifies 93 out of the 112 samples, that would be predicted as sensitive. […] Thus, the prediction accuracy or NPV is 77/93=82.8%. As the threshold is increased (descending the 1st column of Table 4), the range of scores included is narrowed because the maximum is always 100%. Consequently, as the threshold is increased, the total number of samples included diminishes, reaching 0 samples at 100% (100-100%) and 18 samples at 95%. The decrease can be observed in the number of either sensitive or resistant samples (descending columns 8 and 9 of Table 4). […] Thus, the higher the score, the better the prediction (moreover, the intermediate sensitivity values provide less accurate prediction than the extreme values).

[3] = tested on: bone marrow samples of acute lymphoid leukemia (ALL) patients; test: Ex vivo test of single drugs, EC50 compared with population distribution, acute lymphoid leukemia samples; assay type: cell-based, human; details: ALL second line patient VIVIA-PMALL04001, 48 h
Method: Bone marrow samples were obtained from three adult patients diagnosed with MM (VIVIA-PMMM010431, VIVIA-PMMM060111 and VIVIA-PMMM130061) and three adult patients diagnosed with ALL (VIVIA-PMALL07002, VIVIA-PMALL04001 and VIVIA-PMALL09001). Following the same experimental design as described for examples 1 and 3, said bone marrow samples were incubated for 48 h in well plates containing the single drugs shown in FIGS. 21 to 26. After the measurement of pathological populations by flow cytometry, pharmacological response parameters were estimated using population pharmacodynamic models. The most representative parameter of drug potency, the EC50, was used for a comparative analysis of the results provided by said bone marrow samples with respect to the statistical distribution of the same parameter observed in a population of samples and stored in the database. Such populations varied in size depending on the drug, being always over one hundred individuals in the case of MM and between 15 and 21 individuals in the case of ALL.

EC50 ([1]; Homo sapiens, AML bone marrow samples, 48 h incubation): 87 nM
SMILES: CC(=O)[C@]1(O)Cc2c(O)c3c(c(O)c2[C@@H](O[C@H]2C[C@H](N)[C@H](O)[C@H](C)O2)C1)C(=O)c1ccccc1C3=O [Idarubicin, idarubicin]
EMAX (maximum fractional decrease in LPC) ([1]; set to 1 in the model, 48 h): 1 | γ (steepness of LPC vs concentration curve) ([1]; 48 h): 1.14 | % Sens. (percentage of patients sensitive to therapy, NPV) ([2]; PM Test score ≥55): 84.8% | Res. (number of patients resistant to therapy) ([2]; PM Test score ≥55): 12 | Sens. (number of patients sensitive to therapy) ([2]; PM Test score ≥55): 67 | % Sens. (percentage of patients sensitive to therapy, NPV) ([2]; PM Test score ≥60): 84.9% | Res. (number of patients resistant to therapy) ([2]; PM Test score ≥60): 11 | Sens. (number of patients sensitive to therapy) ([2]; PM Test score ≥60): 62 | % Sens. (percentage of patients sensitive to therapy, NPV) ([2]; PM Test score ≥65): 87.0% | Res. (number of patients resistant to therapy) ([2]; PM Test score ≥65): 9 | Sens. (number of patients sensitive to therapy) ([2]; PM Test score ≥65): 60 | % Sens. (percentage of patients sensitive to therapy, NPV) ([2]; PM Test score ≥70): 86.6% | Res. (number of patients resistant to therapy) ([2]; PM Test score ≥70): 9 | Sens. (number of patients sensitive to therapy) ([2]; PM Test score ≥70): 58 | % Sens. (percentage of patients sensitive to therapy, NPV) ([2]; PM Test score ≥75): 85.2% | Res. (number of patients resistant to therapy) ([2]; PM Test score ≥75): 9 | Sens. (number of patients sensitive to therapy) ([2]; PM Test score ≥75): 52 | % Sens. (percentage of patients sensitive to therapy, NPV) ([2]; PM Test score ≥80): 85.7% | Res. (number of patients resistant to therapy) ([2]; PM Test score ≥80): 8 | Sens. (number of patients sensitive to therapy) ([2]; PM Test score ≥80): 48 | % Sens. (percentage of patients sensitive to therapy, NPV) ([2]; PM Test score ≥85): 86.5% | Res. (number of patients resistant to therapy) ([2]; PM Test score ≥85): 7 | Sens. (number of patients sensitive to therapy) ([2]; PM Test score ≥85): 45 | % Sens. (percentage of patients sensitive to therapy, NPV) ([2]; PM Test score ≥90): 88.4% | Res. (number of patients resistant to therapy) ([2]; PM Test score ≥90): 5 | Sens. (number of patients sensitive to therapy) ([2]; PM Test score ≥90): 38 | % Sens. (percentage of patients sensitive to therapy, NPV) ([2]; PM Test score ≥95): 96.8% | Res. (number of patients resistant to therapy) ([2]; PM Test score ≥95): 1 | Sens. (number of patients sensitive to therapy) ([2]; PM Test score ≥95): 30 | Res. (number of patients resistant to therapy) ([2]; PM Test score ≥100): 0 | Sens. (number of patients sensitive to therapy) ([2]; PM Test score ≥100): 0 | ex vivo activity [3]: very potent activity
